The results in this text go back to EP0457243A1, “Novel tricyclic compounds” (priority 1990, dated 1991).

Where two headings read alike, the source gives them in different places.

In one series the test system is BKW mice. As to conditions: 1 µ/g/kg i.p. The procedure:
Anxiolytic activity during withdrawal from drugs of abuse is determined by the mouse light/dark withdrawal anxiety test. This procedure utilizes the exploratory model described above to test for anxiolytic activity after administration and subsequent abrupt cessation of diazepam, alcohol, cocaine or nicotine treatments. A detailed description is set for in Example 13 of this application.
The following procedure describes a method to determine whether compounds of Formula I effect the anxiety that occurs after abruptly ceasing chronic treatment with drugs of abuse.
Naive male BKW mice (25-30 g) are caged in groups of ten in quarters controlled for sound, temperature and humidity. Food and water are available ad libitum. The mice are kept on a 12 hour light cycle and 12 hour dark cycle, with lights on at 6:00 a.m. and off at 6:00 p.m. All experiments begin at least 7 days after arrival on site.
Levels of anxiety are determined by the two-compartment exploratory model of Crawley and Goodwin (see Example 12). Anxiolysis is seen as a general increase in exploratory activity in the lighted area. An increase in exploratory activity is relected by increased latency (the time for the mouse to move to the dark chamber when first placed in the center of the lighted area), increased or unaltered locomotor activity (number of grid lines crossed), increased number of rears and decreased time spent in the dark compartment.
Increased exploratory activity in the lighted area is induced by treating the mice for 14 days with alcohol (8.0 % w/v in drinking water), nicotine (0.1 mg/kg, i.p., twice daily), diazepam (10 mg/kg, i.p., twice daily), or cocaine (1.0 mg/kg, i.p., twice daily). Anxiolysis is assessed 1, 3, 7 and 14 days after commencement of the drug regime. The treatment is abruptly ceased and exploratory activity in the lighted area is determined 8, 24 and 48 hours thereafter. Vehicle or test compounds are administered during the withdrawl phase by intraperitoneal injection. Responses are represented as inhibition of the decrease in anxiolytic behavior after the alcohol, cocaine or nicotine treatment is ceased.

For a further series, the system named is C5BI/6J mice. Briefly: Mouse anxiolytic behavior model (two-compartment exploratory model). Further details: % ACTIVITY DARK AREA W% / SHUTTLE ACTIVITY W% / LOCOMOTOR ACTIVITY (LIGHT AREA) W% / % ACTIVITY DARK AREA Mean ± SD: concentration or dose not given beside the values. Type of series: in vivo. As to conditions: for % ACTIVITY DARK AREA Mean ± SD / LATENCY (SEC) Mean ± SD / LOCOMOTOR ACTIVITY (LIGHT AREA) Mean ± SD / SHUTTLE ACTIVITY Mean ± SD / TIME DARK AREA (SEC) Mean ± SD: i.p., 15 min post-treatment, monitored for 10 minutes; for % ACTIVITY DARK AREA W% / LATENCY (SEC) W% / LOCOMOTOR ACTIVITY (LIGHT AREA) W% / SHUTTLE ACTIVITY W% / TIME DARK AREA (SEC) W%: percentage change from control. On the procedure:
In brief, the method involves determining whether a compound reduces the natural anxiety of mice in brightly-lit areas.
The following describes an in vivo method for determining anxiolytic activity of compounds of Formula I.
Naive male C5BI/6J mice, 18-20 g, are kept in groups of 10 mice in quarters controlled for sound, temperature and humidity. Food and water are available ad libitum. The mice are kept on a 12 hour light and 12 hour dark cycle, with lights on at 6:00 a.m. and off at 6:00 p.m. All experiments begin at least 7 days after arrival on site.
Briefly, the chamber consists of a plexiglass box (44 x 21 x 21 cm), divided into two chambers by a black plexiglass partition. The partition dividing the two chambers contains a 13 x 5 cm opening through which the mouse can easily pass. The dark chamber has […]. A fluorescent tube light (40 watt) placed above the chambers provides the only illumination. The Digiscan Animal Activity Monitor System RXYZCM16 (Omni-Tech Electronics) records the exploratory activity of the mice within the test chambers.
Prior to commencement of the study the mice are given 60 min to acclimatize to the laboratory environment. After a mouse receives an intraperitoneal (i.p.) injection of either test compound or vehicle it is returned to its home cage for a 15 min post-treatment period. The mouse is then placed in the center of the light chamber and monitored for 10 minutes.
Anxiolysis is seen as a general increase in exploratory activity in the lighted area. An increase in exploratory activity is relected by increased latency (the time for the mouse to move to the dark chamber when first placed in the center of the lighted area), increase in shuttle activity, increased or unaltered locomotor activity (number of grid lines crossed) and decreased time spent in the dark compartment.

Series [1] is described as follows: Toxicity observation after i.p. administration. Type of series: in vivo. As to conditions: 10 mg/kg, over 90 minutes.

On to `Cl.Nc1c(Cl)cc2c3c(cccc13)C(=O)N([C@@H]1CN3CCC1CC3)C2=O` [(1), S-6-amino-5-chloro-2-(1-azabicyclo[2.2.2]oct-3-yl)-2,3-dihydro-1H-benz[de]isoquinoline-1,3-dione hydrochloride], for which, in the series on BKW mice (alcohol withdrawal), the “Crossings/ 5 Min in Light” value stood at 88.0±9.0, the “Latency” value came out at 9.0 ± 1.3 s, the “Rears/5 Min in Light” value was 86.0±9.0 and the “Time in Dark (%)” value is recorded as 60.0±6.4%. For the same compound, in the series on BKW mice (cocaine withdrawal), the “Crossings/ 5 Min in Light” value is given as 135.±15.7, the “Latency” value is 28.7 ± 2.81 s, the “Rears/5 Min in Light” value is 101.±2.81 and the “Time in Dark (%)” value turned out to be 22.5±2.4%. In the series with BKW mice (diazepam withdrawal), the “Crossings/ 5 Min in Light” value is 97.5±10.6, the “Latency” value was 34.0 ± 3.7 s, the “Rears/5 Min in Light” value came out at 89.2±9.1 and the “Time in Dark (%)” value is given as 27.4±2.9%. In addition, in the series with BKW mice (nicotine withdrawal), the “Crossings/ 5 Min in Light” value is listed as 94.0±10.1, the “Latency” value was 20.8 ± 2.4 s, the “Rears/5 Min in Light” value came out at 84.5±9.0 and the “Time in Dark (%)” value turned out to be 29.0±3.1%. In the series with C5BI/6J mice, the “% ACTIVITY DARK AREA Mean ± SD” value is on record as 37.6 ± 4.9 %, the “LATENCY (SEC) Mean ± SD” value was 3.5 ± 0.5 s, the “LOCOMOTOR ACTIVITY (LIGHT AREA) Mean ± SD” value is on record as 1208.0 ± 86.4 and the “SHUTTLE ACTIVITY Mean ± SD” value was found to be 42.0 ± 3.9. Moreover, in the series on C5BI/6J mice, the “TIME DARK AREA (SEC) Mean ± SD” value came to 394.9 ± 32.8 s, the “% ACTIVITY DARK AREA W%” value is reported as -54.0%, the “LATENCY (SEC) W%” value is -28.6% and the “LOCOMOTOR ACTIVITY (LIGHT AREA) W%” value is reported as 41.0%. Further, in the series on C5BI/6J mice, the “SHUTTLE ACTIVITY W%” value was 37.3% and the “TIME DARK AREA (SEC) W%” value is listed as -26.9%.
Turning to `I.Nc1c(Cl)cc2c3c(cccc13)C(=O)N([C@@H]1CN3CCC1CC3)C2=O` [(2), S-6-amino-5-chloro-2-(1-azabicyclo[2.2.2]oct-3-yl)-2,3-dihydro-1H-benz[de]isoquinoline-1,3-dione hydrogeniodide], in the series with C5BI/6J mice, the “% ACTIVITY DARK AREA Mean ± SD” value is recorded as 78.4 ± 1.8 %, the “LATENCY (SEC) Mean ± SD” value is 8.1 ± 1.4 s, the “LOCOMOTOR ACTIVITY (LIGHT AREA) Mean ± SD” value was determined as 1602.4 ± 73.0 and the “SHUTTLE ACTIVITY Mean ± SD” value amounted to 138.6 ± 9.1. In the series with C5BI/6J mice, the “TIME DARK AREA (SEC) Mean ± SD” value worked out at 498.4 ± 9.3 s, the “% ACTIVITY DARK AREA W%” value is given as -10.0%, the “LATENCY (SEC) W%” value was 102.5% and the “LOCOMOTOR ACTIVITY (LIGHT AREA) W%” value turned out to be 42.6%. Moreover, in the series with C5BI/6J mice, the “SHUTTLE ACTIVITY W%” value is listed as 112.3% and the “TIME DARK AREA (SEC) W%” value is listed as -10.8%.
Regarding `Cc1nccn1CC1CCc2c(c3ccccc3n2C)C1=O` (stereo not shown) [Ondansetron, reference compound], in the series with C5BI/6J mice, the “% ACTIVITY DARK AREA Mean ± SD” value was found to be 78.5 ± 4.7%, the “LATENCY (SEC) Mean ± SD” value came out at 6.7 ± 1.5 s, the “LOCOMOTOR ACTIVITY (LIGHT AREA) Mean ± SD” value stood at 1582.0 ± 77.8 and the “SHUTTLE ACTIVITY Mean ± SD” value came to 121.0 ± 12.4. In the series with C5BI/6J mice, the “TIME DARK AREA (SEC) Mean ± SD” value was 499.4 ± 14.8 s, the “% ACTIVITY DARK AREA W%” value is listed as -13.1%, the “LATENCY (SEC) W%” value turned out to be 4.7% and the “LOCOMOTOR ACTIVITY (LIGHT AREA) W%” value came out at 52.6%. Also, in the series with C5BI/6J mice, the “SHUTTLE ACTIVITY W%” value is 182.7% and the “TIME DARK AREA (SEC) W%” value was -12.8%.
For the compound `Cl.Nc1cc2c3c(cccc3c1Cl)C(=O)N(C1CN3CCC1CC3)C2=O` (stereo not shown) [RS-6-chloro-5-amino-2-(1-azabicyclo[2.2.2]oct-3-yl)-2,3-dihydro-1H-benz[de]isoquinoline-1,3-dione hydrochloride], the unusual effects observed entry in series [1] was “No unusual effects”.
Still for that read-out and setting: for `Cl.O=C1c2cccc3cccc(c23)C(=O)N1[C@@H]1CN2CCC1CC2` [S-2-(1-azabicyclo[2.2.2]oct-3-yl)-2,3-dihydro-1H-benz[de]isoquinoline-1,3-dione hydrochloride] the value was “No unusual effects”.
For `Cl.Nc1cc2c3c(cccc3c1Cl)C(=O)N([C@@H]1CN3CCC1CC3)C2=O` [S-6-chloro-5-amino-2-(1-azabicyclo[2.2.2]oct-3-yl)-2,3-dihydro-1H-benz[de]isoquinoline-1,3-dione hydrochloride], in series [1], the unusual effects observed result is reported as “No unusual effects”.
